From PubChem BioAssay AID1645868 (Buhrlage Lab, Dana-Farber Cancer Institute and Novartis …, 2021)
Active and inactive are the calls of the source.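 The calls were made as follows: active = maximal percent inhibition of the deubiquitinase OTUD3 of at least 30% across the tested doses; inactive = the rest.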

molecular target: OTU domain-containing protein 3 (Homo sapiens) (UniProt Q5T2D3); test: Validation of screening hits, potency titration, in vitro enzymatic, OTU domain-containing protein 3 DUB inhibitors (AID 1645868); details: purified OTUD3, ubiquitin-rhodamine cleavage fluorescence, 2 h
Sequence (Q5T2D3 whole entry, looked up, the tested form may be a part): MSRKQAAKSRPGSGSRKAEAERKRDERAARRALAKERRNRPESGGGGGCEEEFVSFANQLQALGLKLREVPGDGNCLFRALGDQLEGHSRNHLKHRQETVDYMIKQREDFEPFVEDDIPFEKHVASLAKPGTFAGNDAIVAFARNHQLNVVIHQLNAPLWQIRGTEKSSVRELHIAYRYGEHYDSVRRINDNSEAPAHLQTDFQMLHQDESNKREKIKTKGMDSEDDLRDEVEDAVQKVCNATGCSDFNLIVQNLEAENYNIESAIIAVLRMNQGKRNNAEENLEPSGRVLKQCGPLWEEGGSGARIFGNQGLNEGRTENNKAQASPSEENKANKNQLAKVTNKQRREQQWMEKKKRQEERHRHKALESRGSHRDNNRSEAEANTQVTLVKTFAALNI

Structure (SMILES) | IC50
CC(C)CC(=O)Nc1cc(F)c2nc(N3CCOCC3)ccc2c1 | > 50 µM (inactive)
COC(=O)c1ccc2c(=O)n(CCCCCC(=O)NCc3cccc(Cl)c3)c(=O)[nH]c2c1 | 3.22 µM
COc1ccccc1N1CCN(C(=O)c2ccc3c(c2)N(Cc2cc(C)ccc2C)C(=O)c2ccccc2S3=O)CC1 (stereo not drawn) | > 50 µM (inactive)
COc1cccc(CC(=O)Nc2cc(F)c3nc(N4CCOCC4)ccc3c2)c1 | > 50 µM (inactive)
Cc1ccc2cc(CNc3ccccc3)c(=O)n(CC(=O)Nc3ccccc3C)c2c1 | 26 µM
CC1CCN(c2cc(-n3cnc(C(=O)N4CCCC(C)C4)c3)ncn2)CC1 (stereo not drawn) | > 50 µM (inactive)
CN=C(N)NCCC/C=C/CCCC(C)CC(C)C1OC(=O)/C=C/C(C)C(O)CC(O)C(C)C(O)CCC(C)C(O)CC2(O)OC(CC(OC(=O)CC(=O)O)CC(O)CC(O)C(C)C(O)/C=C/C1C)CC(O)C2O (stereo not drawn) | > 50 µM (inactive)
O=C(NCc1ccc2c(c1)OCO2)c1nnc(Cc2ccc(F)cc2)o1 | > 50 µM (inactive)
Nc1ccc(NC(=O)c2cc3c(s2)CCC3)cc1[N+](=O)[O-] | 23.5 µM
O=C(COc1ccc2c(-c3ccccc3)cc(=O)oc2c1)Nc1cccnc1 | 21.5 µM
COc1ccc(NC2c3ccccc3C(=O)N2c2ccccn2)cc1 (stereo not drawn) | > 50 µM (inactive)
CO[C@H]1/C=C/OC2(C)Oc3c(C)c(O)c4c(c3C2=O)C2(C=C(NC(=O)/C(C)=C\C=C\[C@H](C)[C@H](O)[C@@H](C)[C@@H](O)[C@@H](C)[C@H](OC(C)=O)C1C)C4=O)OCC(=O)O2 (stereo partly drawn) | > 50 µM (inactive)
CCCC1Cc2c(sc3nc(SCC)nc(N)c23)CO1 (stereo not drawn) | 26.9 µM
CCN(C(=O)c1cc2c(s1)-c1ccccc1OC2)c1ccccc1F | > 50 µM (inactive)
COCCCNC(=O)c1ccc(Cn2c(=O)c3ccccc3n(CC(=O)Nc3ccc(OC)cc3)c2=O)cc1 | 28.1 µM
CC(=O)Nc1cc(-c2cccc(O)c2)cn2c(-c3cnn(C)c3)cnc12 | > 50 µM (inactive)
CC1CCc2c(sc3nc(CC#N)[nH]c(=O)c23)C1 (stereo not drawn) | > 50 µM (inactive)
COC(=O)c1ccc(NC(=O)CSc2nnc(-c3ccc(O)cc3)n2Cc2ccco2)cc1 | > 50 µM (inactive)
CCn1ccc2c(cc(C(=O)Nc3ccccc3F)n2C)c1=O | > 50 µM (inactive)
COc1ccc(NC(=O)C2C3C=CC4(O3)C2C(=O)N(CCc2ccccc2)C4C(=O)NC2CCCCC2)cc1 (stereo not drawn) | 26.6 µM
COc1cc([C@@H]2c3cc4c(cc3C[C@@H]3COC(=O)[C@H]32)OCO4)cc(OC)c1OC | 20.5 µM
Cc1ccc(-n2nnc(C(=O)NC3CCCCC3)c2N)cc1 | > 50 µM (inactive)
COc1ccc(C(=O)CSc2nnc(-c3cccnc3)n2-c2ccccc2)cc1 | > 50 µM (inactive)
Cc1ccc2c(c1C)NC(=O)[C@]21[C@@H]2C(=O)N(c3cccc(Cl)c3)C(=O)[C@@H]2[C@@H]2CCCN21 | > 50 µM (inactive)

Structure (SMILES) | IC50
Cc1cc(C)cc(N(CCC(=O)Nc2ccc(N3CCOCC3)cc2)S(=O)(=O)c2ccc(Cl)cc2)c1 | 19.7 µM
Fc1ccc(Oc2nc(CN3CCOCC3)nc3sc4c(c23)CCCC4)c(Cl)c1 | > 50 µM (inactive)
O=C(NCCc1ccco1)c1ccc(N2CCOc3ccccc32)s1 | 28.4 µM
O=C(c1cc2ccccc2o1)N1CC=C(c2ccccc2)CC1 | > 50 µM (inactive)
Cc1ccc(NC(=O)c2c3c(nc4ccccc24)CCCCC3)c(C)c1 | > 50 µM (inactive)
Fc1cccc(Cn2cc(-c3noc(-c4cccnc4)n3)nn2)c1 | > 50 µM (inactive)
COCCNC(=O)c1ccn(-c2ccc3ccc(-c4cnn(C)c4)cn23)n1 | > 50 µM (inactive)
Cc1cccc(-n2nc(C)c3c2NC(=O)CC3C(=O)c2cc3ccccc3o2)c1 (stereo not drawn) | 32 µM
O=C(OCc1ccc(F)cc1)c1ccc2ccccc2n1 | > 50 µM (inactive)
O=C1N(Cc2ccc(F)cc2)CCN1c1ccc2c(c1)CCC2 | > 50 µM (inactive)
COc1ccc(-c2cc(C(=O)NC3CCCCCC3)[nH]n2)cc1S(=O)(=O)N(C)C | > 50 µM (inactive)
CC1=C(c2ccc(C)c(C)c2)S(=O)(=O)NC1=NCC(=O)NCCCc1ccccc1 | 46.8 µM
O=C(NCCc1ccccn1)c1cn2ccnc(-c3ccc(F)cc3)c2n1 | > 50 µM (inactive)
CCc1cc(C(=O)c2ccc(OC)cc2)c(NC(=O)CN2CCCCC2)s1 | > 50 µM (inactive)
O=C(Nc1nc2c(ccc3ccccc32)s1)c1cccc(Br)c1 | 24.6 µM
O=C(COc1ccc(F)cc1)Nc1cc(F)c2nc(N3CCOCC3)ccc2c1 | > 50 µM (inactive)
O=C(CSc1nc2ccncc2[nH]1)Nc1ccc(Br)cc1F | 49.8 µM
COc1ccc(-c2nonc2NC(=O)C(c2ccccc2)c2ccccc2)cc1OC | > 50 µM (inactive)
COC(=O)[C@]1(O)O[C@@]2(C(=O)OC)c3c(oc4cc(C)cc(O)c4c3=O)[C@H]3c4c(oc5cc(C)cc(O)c5c4=O)C[C@H]1[C@H]32 | > 50 µM (inactive)
Fc1cccc(-n2cc(-c3noc(-c4ccc[nH]4)n3)nn2)c1 | > 50 µM (inactive)
CC1=C(c2ccc(F)cc2)S(=O)(=O)NC1=NCC(=O)Nc1ccc(F)cc1 | > 50 µM (inactive)
CC(C)Cc1nc2oc3c(N(C)CCO)ncnc3c2c2c1CCC2 | > 50 µM (inactive)
CC(=O)c1ccc(NC(=O)/C(=C/c2ccco2)n2nnnc2-c2ccccc2)cc1 | > 50 µM (inactive)
COc1cc(O)c2c(O)c3c(cc2c1)CC(C)OC3=O (stereo not drawn) | > 50 µM (inactive)

Structure (SMILES) | IC50
COc1ccc(C2CC(c3ccccc3)N(C(=O)C3CC3)c3ncnn32)cc1 (stereo not drawn) | > 50 µM (inactive)
COc1ccc2nc(-c3ccc(NC(=O)c4cccc(OC)c4OC)cc3)cn2n1 | > 50 µM (inactive)
CC(=O)C1=C(O)[C@]2(O)C(=O)c3c(c(C)c4ccc(C)c(O)c4c3O)C[C@H]2[C@@H](N)C1=O | 2.13 µM
Cc1ncc(CO)c2c1Oc1nc(-c3cccc(Cl)c3)nc(SCC(=O)N3CCCCC3)c1C2 | > 5 µM (inactive)
CCn1c(=N)n(CCOc2ccc(F)cc2)c2ccccc21 | > 50 µM (inactive)
O=C(CCc1ccccc1)N(CC1CCCO1)c1nc2ccccc2s1 (stereo not drawn) | > 50 µM (inactive)
CC(C)c1nc2sc3c(NCc4ccco4)ncnc3c2c2c1CCC2 | > 50 µM (inactive)
O=C(Nc1ccc2c(c1)OCCO2)c1cc(CN2CCCC2)on1 | > 50 µM (inactive)
Clc1cncc(Oc2nc(-c3cccnc3)nc3ccccc23)c1 | > 50 µM (inactive)
COc1cccc(NC(=O)CCc2c(C)nn(-c3cc(N4CCCCC4)ncn3)c2C)c1 | > 50 µM (inactive)
Cc1nn(-c2ccccc2)c2c1N=C1C(Cl)=CC(Cl)=CN1C21C(=O)Nc2ccccc21 (stereo not drawn) | > 50 µM (inactive)
COc1ccccc1OCC(=O)Nc1ccc2c(c1)CCC(=O)N2Cc1ccccc1 | > 50 µM (inactive)
Cc1ccc([N+](=O)[O-])cc1S(=O)(=O)Nc1cc2sc(=O)oc2c2ccccc12 | 35.9 µM
CCC(C(=O)NCc1ccncc1)N(c1cccc(Cl)c1)S(C)(=O)=O (stereo not drawn) | > 50 µM (inactive)
Cn1cccc1C(=O)N1CCCC2(C1)Nc1cccnc1NC2=NC1CCCC1 (stereo not drawn) | > 50 µM (inactive)
COc1cc(C(=O)OCc2csc(-c3ccccc3)n2)ccc1OCC(=O)Nc1ccc(F)cc1 | > 50 µM (inactive)
Cc1ccc(Cl)cc1NC(=O)COC(=O)c1ccc2ccccc2n1 | > 50 µM (inactive)
COCCCn1c(C(=O)Nc2ccccc2OC)cc2c(=O)n3ccccc3nc21 | > 50 µM (inactive)
COc1ccc(C(=O)Nc2nc3n(n2)C(c2ccccc2)CC(=O)N3)cc1 (stereo not drawn) | 18.7 µM
c1ccc(-c2nc(-c3nnn(-c4ccccc4)c3-c3ccncc3)no2)cc1 | 26.8 µM
Cc1nn(-c2cccc(F)c2)c2c1c(C)c(CCC(=O)NCc1ccccn1)c(=O)n2C | > 50 µM (inactive)
CC(=O)O[C@H]1[C@]2(O)C[C@]34SS[C@](CO)(C(=O)N3[C@@H]2C[C@@]12O[C@@H](C)C(C)(C)C2=O)N(C)C4=O | > 50 µM (inactive)
O=C(c1cscn1)N1CCC2(CC1)CC1(CO2)Nc2ccccc2-n2cccc21 (stereo not drawn) | > 50 µM (inactive)
Cc1ccc2nc(CCc3ccc(NS(=O)(=O)c4cccc(Cl)c4C)cc3)[nH]c2c1 | > 50 µM (inactive)

Structure (SMILES) | IC50
CC(=O)N1CCc2cc(S(=O)(=O)NCc3ccc(C)cc3)ccc21 | > 50 µM (inactive)
COc1ccc(C(=O)CSc2nnc(-c3cc4cccc(OC)c4o3)n2C)cc1OC | > 50 µM (inactive)
O=C(Nc1oc2ccccc2c(=O)c1-c1ccc2c(c1)OCO2)C1CCCCC1 | > 50 µM (inactive)
Cc1c(-c2nc(-c3ccccc3Cl)no2)nnn1-c1cccc(F)c1 | > 50 µM (inactive)
CC(=O)Nc1cc2cc(-n3cccc3)ccc2oc1=O | > 50 µM (inactive)
CSc1cccc(C(=O)Nc2ccc(-c3nc4ccccc4[nH]3)cc2)c1 | 21.7 µM
O=C(NC1CCN(Cc2ccccc2)CC1)c1[nH]nc2c1CCc1ccccc1-2 | > 50 µM (inactive)
CCn1cc2c(n1)c(=O)n(Cc1ccccc1)c(=O)n2CC(=O)Nc1ccc(OC)cc1 | 12.1 µM
CCOC(=O)c1sc2nc(CC(=O)OC)nc(NCc3ccco3)c2c1C | > 50 µM (inactive)
CCN1CCCC1CN(Cc1cc2cc(OC)ccc2[nH]c1=O)C(=O)NCc1ccccc1 (stereo not drawn) | > 50 µM (inactive)
CCCCOc1ccc(C(=O)Nc2ccc3c(c2)CCC(=O)N3CCC)cc1 | > 50 µM (inactive)
O=C(CSc1ncnc2c1oc1ccccc12)Nc1ccc2c(c1)OCCO2 | 34.5 µM
COc1ccc(CCNC(=O)c2c(N)n(-c3cccc(Cl)c3)c3nc4ccccc4nc23)cc1 | > 50 µM (inactive)
O=C(Nc1ccc(Oc2cccc3cccnc23)cc1)c1cccs1 | > 50 µM (inactive)
Oc1ccc(-c2nc3cnccn3c2NCCc2ccccc2)c(O)c1 | > 50 µM (inactive)
O=C(Nc1ccccc1)c1cn2c3c(cccc3c1=O)CC2 | > 50 µM (inactive)
COC(=O)C1C(c2ccc(Cl)cc2Cl)C2(C(=O)c3ccccc3C2=O)C2C=Cc3ccccc3N12 (stereo not drawn) | > 50 µM (inactive)
CC(C(=O)Nc1ccccc1)n1cnc2nc(N3CCCCC3)ncc2c1=O (stereo not drawn) | > 50 µM (inactive)
COc1cccc(OCCCn2c(C(C)NC(=O)c3ccco3)nc3ccccc32)c1 (stereo not drawn) | 32.8 µM
O=C(NCC(c1cccnc1)N1CCc2ccccc2C1)C(=O)Nc1ccc2c(c1)OCO2 (stereo not drawn) | 37.7 µM
N#Cc1c(N)nc2c(c1N)C(c1ccccc1)CO2 (stereo not drawn) | > 50 µM (inactive)
